This is an account of results in US20240270758A1, “PYRIDINO-OR PYRIMIDO-CYCLIC COMPOUND, PREPARATION METHOD THEREFOR AND MEDICAL USE THEREOF” (Genfleet Therapeutics (Shanghai) Inc., priority 2021, published 2024).

One may read the IC50 as the concentration at which inhibition is half-maximal. A lower IC50 goes with inhibition by little substance. The Vd is a proportionality between amount in the body and measured concentration, not a real space. The low end stands for confinement near the circulation, the high end for extensive tissue distribution. For orientation: half-life means how long it takes for the measured level to halve. As usually defined, the AUC is concentration integrated over time. Read a high AUC as high exposure. Usually Cmax stands for the maximum level reached in the sampled fluid or tissue.

The subject of data set [1] is AsPC-1 cells (KRAS^G12D mutation). Kind of data set: Cell proliferation inhibition assay (3D, CellTiter-Glo), AsPC-1. The data set is classed as cell-based, human. The settings on record: Homo sapiens, ASPC1, 120 h, 3D cell model, 5 days. The essentials:
(§1)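 3D spheroids of AsPC-1 (800 cells/well, RPMI-1640) or AGS (400 cells/well, F-12K), 10% FBS, seeded overnight, then exposed 5 days to 3.16-fold compound dilutions (0.1% DMSO final). CellTiter-Glo 3D luminescence gives inhibition relative to DMSO and medium blanks; IC50 from four-parameter fit.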
For orientation: In ATP-based viability assays light output follows the ATP content of the culture.

The subject of data set [2] is AGS cells (KRAS^G12D mutation). Briefly: Cell proliferation inhibition assay (3D, CellTiter-Glo), AGS. Type of data set: cell-based, human. Particulars: Homo sapiens, AGS, 120 h, 3D cell model, 5 days. An outline of the steps:
as §1

Data set [3] relates to p-ERK in AGS cells (KRAS^G12D mutation). Kind of data set: Cell p-ERK detection assay. The data set is classed as cell-based, human. The settings on record: Homo sapiens, AGS, 3 h, 3 h incubation, HTRF. An outline of the steps: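 AGS cells (KRAS G12D, ~20,000/well in F12K+10% FBS) treated next day with compound at 3.16-fold dilutions, 0.1% DMSO final, for 3 h. Lysates assayed for ERK phospho-T202/Y204 by HTRF after 4 h; inhibition vs DMSO and blank, IC50 from four-parameter fit.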
A general note: TR-FRET usually uses a lanthanide donor and a delayed reading to cut background.

Data set [4] in a line: Mice pharmacokinetic evaluation experiment. Particulars: male, ICR, mouse, mice plasma; for Vd / half-life: IV 1 mg/kg; for AUC / Cmax: PO 100 mg/kg. Type of data set: in vivo. From the text: Purpose of the experiment: male ICR mice were used as test animals to determine the drug concentration in plasma at different time points after intravenous and intragastric administration of test compounds by LC/MS/MS method. The pharmacokinetic behavior of the test compound in mice was studied to evaluate its pharmacokinetic characteristics.
Experimental protocol: laboratory animals: twelve healthy adult male ICR mice, weighing about 30 g, were randomly divided into two groups, 6 mice in IV group and 6 mice in PO group, N=3/time point, with semi-continuous blood collection. Animals were purchased from Vital River Laboratory Animal Technology Co., Ltd.
Drug preparation: IV group: taking 10 mL sample solution as an example, weighing 2 mg sample, followed by adding 0.5 mL DMSO, […], then adding […] HP-β-CD, finally dilute to 10 mL with water, stirring and ultrasound to reach 0.2 mg/mL clear state. PO group: weighing an appropriate amount of samples and preparing them according to the solvent ratio of the IV group, and evenly reaching the state of 10 mg/mL after stirring and ultrasound. Administration: after fasting for one night, intravenous administration was performed in the IV group, with an administration volume of 5 mL/kg and a dose of 1 mg/kg: the PO group was administered intragastrically a dose volume of 10 mL/kg and a dose of 100 mg/kg.
Experimental operation: after the test compounds were administered to the male ICR mice in the intravenous injection group and the intragastric administration group, the blood 110 ul were collected at time points of 0.25, 0.5, 1, 2, 4, 7, and 24 h, and stored in a commercial anticoagulant tube pre-filled with K2EDTA. The plasma was separated by centrifugation for 15 min and stored at −70° C. Animals were fed 4 h after administration. The plasma levels of test compounds following intravenous and intragastric administration in mice were determined by LC/MS/MS method. The linear range of the method was 1-3000 ng/ml; Plasma samples were analyzed after treatment with acetonitrile precipitated protein.

In the case of `C#Cc1c(F)ccc2cc(O)cc(-c3ncc4c(N5C[C@H]6CC[C@@H](C5)N6)nc(OCC56CC(=C)CN5CC(=C)C6)nc4c3F)c12` [Example Z194, 4-(4-((1R,5S)-3,8-diazabicyclo[3.2.1]octan-3-yl)-2-((2,6-dimethylenetetrahydro-1H-pyrrolizin-7a(5H)-yl)methoxy)-8-fluoropyrido[4,3-d]pyrimidin-7-yl)-5-ethynyl-6-fluoronaphthalen-2-ol], in data set [1], half-maximal inhibition (IC50) was put at 4.6 nM. In addition, in data set [2], half-maximal inhibition (IC50) was put at 1.4 nM. The compound further returned an IC50 in data set [3] of 0.69 nM. In data set [4], this compound gave a Vd of 16.9 L/kg, a half-life of 11.2 h, an AUC of 2840 ng·h/mL and a Cmax of 560 ng/mL.

As to `C#Cc1c(F)ccc2cc(O)cc(-c3ncc4c(N5CC6CCC(C5)N6)nc(OC[C@@]56CCCN5C[C@H](F)C6)nc4c3F)c12` [MRTX1133, reference compound], in data set [4], the Vd amounted to 14.1 L/kg, the half-life was 5.15 h, the AUC was found to be 745 ng·h/mL and the Cmax came to 279 ng/mL.
